The values that follow come from patent US9096615B2, “Bridged bicyclic amino thiazine dioxide compounds as inhibitors of beta-secretase and methods of use thereof” (AMGEN INC., priority 2013, dated 2015).

Assay [1] deals with BACE1 (Homo sapiens, UniProt P56817). Kind of assay: In vitro enzymatic BACE FRET assay. The class given is biochemical. The following applies: average IC50; read-out: BACE1 Enzyme assay IC50. The method in brief: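 Fluorescence (excitation 488 nm, […]) from cleavage of quenched peptide substrate (50 nM), reaction run 1 h after 1 h enzyme–inhibitor pre-incubation, then neutralised with Tris. Conditions: 0.2 nM enzyme, pH 4.2 acetate 0.05 M, 10% DMSO final, 100 uM genapol.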

In assay [2] the target is T1, Cathepsin D (Cat D) (Homo sapiens, UniProt P07339).
T1 construct: made in house; host or cells: CHO cells
Briefly: In vitro enzymatic Cathepsin D (Cat D) FRET assay. The class given is biochemical. The following applies: average IC50; first procedure; read-out: CatD IC50. Put shortly: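 Fluorescence (500 nm excitation, 580 nm emission) was measured after Tris quench of a 1 h cleavage of 20 nM quenched peptide substrate. Before that, 9 nM CHO-expressed human Cat D sat with compound for 1 h at pH 3.5 (0.05 M citrate, 5 mM CHAPS, 10% DMSO final).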

Assay [3] has as its system Aβ40 in conditioned medium of cells stably expressing Amyloid Precursor Protein (APP). Kind of assay: In vitro BACE cell-based assay (HEK cell assay, Aβ40 sandwich ELISA). The following applies: Homo sapiens, HEK293; average IC50; read-out: BACE1 cell assay IC50. Put shortly:
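IC50 was derived from percent-of-control Aβ40 against concentration, with Aβ40 quantified by time-resolved fluorescence ELISA (pAb40/6E10-biotin, 4 °C incubations). Supernatants were sampled after 24 h of compound exposure (10 points, starting 100 or 10 μM, 0.1% DMSO) of cells stably expressing APP.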
On the technique in general: In an ELISA, binding on a coated surface is turned into a signal by an enzyme label.

The target in assay [4] is T2, human Bace2 protein (Homo sapiens, UniProt Q9Y5Z0).
T2 construct: V5 (C); 6-His (C)
T2 sequence (Q9Y5Z0 63-518): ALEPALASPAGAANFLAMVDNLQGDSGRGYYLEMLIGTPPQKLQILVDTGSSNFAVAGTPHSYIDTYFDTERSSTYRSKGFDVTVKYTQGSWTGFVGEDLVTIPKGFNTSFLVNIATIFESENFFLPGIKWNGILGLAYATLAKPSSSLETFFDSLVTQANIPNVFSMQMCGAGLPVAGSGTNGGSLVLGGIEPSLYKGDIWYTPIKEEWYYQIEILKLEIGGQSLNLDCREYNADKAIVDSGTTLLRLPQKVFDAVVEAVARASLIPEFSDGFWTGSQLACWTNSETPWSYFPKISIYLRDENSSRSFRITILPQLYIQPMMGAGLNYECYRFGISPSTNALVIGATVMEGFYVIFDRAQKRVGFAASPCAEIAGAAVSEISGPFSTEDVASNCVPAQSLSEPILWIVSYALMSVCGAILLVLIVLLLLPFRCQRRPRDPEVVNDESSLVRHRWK
Briefly: In vitro enzymatic BACE2 FRET assay. The following applies: average IC50; read-out: BACE2 Enzyme assay IC50. In kind it is biochemical. The method, then:
In Vitro Enzymatic BACE2 FRET (Fluorescence Resonance Energy Transfer) Assay
Enzyme Assay Data in the Table 3
The assay buffer used in this screen is 0.05 M acetate, pH 4.2, 10% DMSO final, 100 uM genapol (which is a nonionic detergent, below its Critical Micelle Concentration). The Beta Secretase2 enzyme (human Bace2 protein with C-terminal V5 and 6-His tag; 0.2 nM) is pre-incubated for one hour with inhibitors, typically in about 1 uL of DMSO according to a serial dilution, are added thereto. This assay is effectively started by the addition of FRET substrate (50 nM) and the combination is incubated for one hour. Final assay concentration of about 0.64 nM. The FRET assay is terminated with by addition of Tris buffer, which raises the pH to neutrality, and the fluorescence is determined. The FRET substrate is a peptide with commercially available fluorophore and quencher, on opposite sides of the BACE cleavage site. Proteolytic cleavage of the FRET substrate releases quenching of fluorescence (excitation 488 nm and […]).

Bounds are passed on as bounds.

Chain of BACE1 (P56817 46-501, species assumed): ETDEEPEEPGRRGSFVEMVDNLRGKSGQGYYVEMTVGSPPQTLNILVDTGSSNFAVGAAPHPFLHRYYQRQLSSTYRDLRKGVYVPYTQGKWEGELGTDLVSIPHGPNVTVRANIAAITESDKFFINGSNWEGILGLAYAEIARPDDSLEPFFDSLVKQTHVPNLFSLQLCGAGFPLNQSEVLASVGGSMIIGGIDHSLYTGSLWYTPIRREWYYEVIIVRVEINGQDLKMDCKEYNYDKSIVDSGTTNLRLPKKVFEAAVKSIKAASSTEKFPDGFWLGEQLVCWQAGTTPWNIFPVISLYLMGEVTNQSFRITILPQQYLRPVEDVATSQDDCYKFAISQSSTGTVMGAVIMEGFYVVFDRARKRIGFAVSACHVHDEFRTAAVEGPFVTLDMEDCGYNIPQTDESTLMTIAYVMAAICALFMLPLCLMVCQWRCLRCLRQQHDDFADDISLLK
T1 sequence (P07339 65-412, species assumed): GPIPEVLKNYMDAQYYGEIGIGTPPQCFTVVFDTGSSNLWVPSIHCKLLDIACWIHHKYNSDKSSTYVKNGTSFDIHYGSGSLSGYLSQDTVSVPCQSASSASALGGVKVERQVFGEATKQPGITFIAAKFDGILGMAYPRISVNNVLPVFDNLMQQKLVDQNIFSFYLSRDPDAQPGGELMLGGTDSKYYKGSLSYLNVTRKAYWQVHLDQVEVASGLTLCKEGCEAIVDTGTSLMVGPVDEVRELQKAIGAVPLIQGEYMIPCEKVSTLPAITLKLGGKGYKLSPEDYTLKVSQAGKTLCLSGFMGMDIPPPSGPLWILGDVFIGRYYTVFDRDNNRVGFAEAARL

Broadly, the IC50 is the concentration that gives 50% inhibition. For the compound `C#CC(C)(C)Oc1cnc(C(=O)Nc2ccc(F)c([C@@]3(C)N=C(N)[C@@]4(CF)CC[C@@H]3S4(=O)=O)c2)cn1` [Example 44, N-(3-((1S,2R,5R)-4-amino-5-(fluoromethyl)-2-methyl-8,8-dioxido-8-thia-3-azabicyclo[3.2.1]oct-3-en-2-yl)-4-fluorophenyl)-5-((1,1-dimethyl-2-propyn-1-yl)oxy)-2-pyrazinecarboxamide], the IC50 was 0.034 µM in assay [1], above 400 µM in assay [2], 0.153 µM in assay [3] and 0.283 µM in assay [4].
In the same order, the values of `C[C@]1(c2cc(Nc3nccc4nc(OCC(F)(F)F)cnc34)ccc2F)N=C(N)[C@@]2(CF)CC[C@@H]1S2(=O)=O` [Example 112, N-(3-((1S,2R,5R)-4-amino-5-(fluoromethyl)-2-methyl-8,8-dioxido-8-thia-3-azabicyclo[3.2.1]oct-3-en-2-yl)-4-fluorophenyl)-2-(2,2,2-trifluoroethoxy)pyrido[3,4-b]pyrazin-5-amine] are 0.008 µM, 1310 µM, 0.188 µM and 0.058 µM.
In the case of `CC#C[C@H](C)Oc1cnc(C(=O)Nc2ccc(F)c([C@@]3(C)N=C(N)[C@@]4(C)CC[C@@H]3S4(=O)=O)c2)cn1` [Example 71, N-(3-((1S,2R,5R)-4-amino-2,5-dimethyl-8,8-dioxido-8-thia-3-azabicyclo[3.2.1]oct-3-en-2-yl)-4-fluorophenyl)-5-(((1S)-1-methyl-2-butyn-1-yl)oxy)-2-pyrazinecarboxamide], the IC50 in assay [1] was 0.003 µM; in assay [2], above 400 µM; in assay [3], 0.0001 µM; in assay [4], 0.008 µM.
In the same order, the values of `C#CCOc1cnc(C(=O)Nc2ccc(F)c([C@@]3(C)N=C(N)[C@@]4(CF)CC[C@@H]3S4(=O)=O)c2)c(Cl)c1` [Example 60, N-(3-((1S,2R,5R)-4-amino-5-(fluoromethyl)-2-methyl-8,8-dioxido-8-thia-3-azabicyclo[3.2.1]oct-3-en-2-yl)-4-fluorophenyl)-3-chloro-5-(2-propyn-1-yloxy)-2-pyridinecarboxamide] are 0.001 µM, 953 µM, 0.008 µM and 0.01 µM.
The corresponding values for `C#CCOc1cnc2c(Nc3ccc(F)c([C@@]4(C)N=C(N)[C@@]5(CF)CC[C@@H]4S5(=O)=O)c3)nccc2n1` [Example 46, N-(3-((1S,2R,5R)-4-amino-5-(fluoromethyl)-2-methyl-8,8-dioxido-8-thia-3-azabicyclo[3.2.1]oct-3-en-2-yl)-4-fluorophenyl)-2-(2-propyn-1-yloxy)pyrido[3,4-b]pyrazin-5-amine] are 0.001 µM, 1000 µM, 0.005 µM and 0.009 µM.
The corresponding values for `C[C@]1(c2cc(Nc3ncnc4cc(OCC5CC5)cnc34)ccc2F)N=C(N)[C@@]2(C)CC[C@@H]1S2(=O)=O` [Example 139, N-(3-((1S,2R,5R)-4-amino-2,5-dimethyl-8,8-dioxido-8-thia-3-azabicyclo[3.2.1]oct-3-en-2-yl)-4-fluorophenyl)-7-(cyclopropylmethoxy)pyrido[3,2-d]pyrimidin-4-amine] are 0.005 µM, 1280 µM, 0.005 µM and 0.067 µM.
For the compound `Cc1cc(Cl)cnc1C(=O)Nc1ccc(F)c([C@@]2(CF)N=C(N)[C@@]3(C)CC[C@@H]2S3(=O)=O)c1` (single isomer, unassigned) [Example 118], the IC50 is 0.017 µM in assay [1], above 400 µM in assay [2], 0.062 µM in assay [3] and 0.002 µM in assay [4].
In the same order, the values of `C[C@]1(c2cc(Nc3ncc(F)c4cc(Cl)cnc34)ccc2F)N=C(N)[C@@]2(CF)CC[C@@H]1S2(=O)=O` [Example 54, N-(3-((1S,2R,5R)-4-amino-5-(fluoromethyl)-2-methyl-8,8-dioxido-8-thia-3-azabicyclo[3.2.1]oct-3-en-2-yl)-4-fluorophenyl)-3-chloro-5-fluoro-1,7-naphthyridin-8-amine] are 0.002 µM, 755 µM, 0.09 µM and 0.002 µM.
In the same order, the values of `C[C@]1(c2cc(Nc3nccc4nc(C(F)(F)F)cnc34)ccc2F)N=C(N)[C@@]2(CF)CC[C@@H]1S2(=O)=O` [Example 55, N-(3-((1S,2R,5R)-4-amino-5-(fluoromethyl)-2-methyl-8,8-dioxido-8-thia-3-azabicyclo[3.2.1]oct-3-en-2-yl)-4-fluorophenyl)-2-(trifluoromethyl)pyrido[3,4-b]pyrazin-5-amine] are 0.018 µM, above 133 µM, 0.351 µM and 0.024 µM.
The corresponding values for `C[C@]1(c2cc(Nc3ncnc4cc(Br)cnc34)ccc2F)N=C(N)[C@@]2(CF)CC[C@@H]1S2(=O)=O` [Example 47, N-(3-((1S,2R,5R)-4-amino-5-(fluoromethyl)-2-methyl-8,8-dioxido-8-thia-3-azabicyclo[3.2.1]oct-3-en-2-yl)-4-fluorophenyl)-7-bromopyrido[3,2-d]pyrimidin-4-amine] are 0.007 µM, 174 µM, 0.036 µM and 0.002 µM.
As to `CC#CCOc1cnc(C(=O)Nc2ccc(F)c([C@@]3(C)N=C(N)[C@]4(C)CC[C@H]3S4(=O)=O)c2)cn1` [Example 83, N-(3-((1R,2R,5S)-4-amino-2,5-dimethyl-8,8-dioxido-8-thia-3-azabicyclo[3.2.1]oct-3-en-2-yl)-4-fluorophenyl)-5-(2-butyn-1-yloxy)-2-pyrazinecarboxamide], the IC50 in assay [1] is 0.001 µM; in assay [2] it was 1100 µM; in assay [3], 0.0005 µM; in assay [4] it was 0.082 µM.
As to `CC#CCOc1cnc2c(Nc3ccc(F)c([C@@]4(C)N=C(N)[C@]5(C)CC[C@H]4S5(=O)=O)c3)nccc2n1` [Example 63, N-(3-((1R,2R,5S)-4-amino-2,5-dimethyl-8,8-dioxido-8-thia-3-azabicyclo[3.2.1]oct-3-en-2-yl)-4-fluorophenyl)-2-(2-butyn-1-yloxy)pyrido[3,4-b]pyrazin-5-amine], the IC50 in assay [1] was determined as 0.003 µM; in assay [2], 1180 µM; in assay [3], 0.002 µM; in assay [4], 0.321 µM.
For the compound `COc1cnc(C(=O)Nc2ccc(F)c([C@@]3(C)N=C(N)[C@@]4(CF)CC[C@@H]3S4(=O)=O)c2)c(F)c1` [Example 43, N-(3-((1S,2R,5R)-4-amino-5-(fluoromethyl)-2-methyl-8,8-dioxido-8-thia-3-azabicyclo[3.2.1]oct-3-en-2-yl)-4-fluorophenyl)-3-fluoro-5-methoxy-2-pyridinecarboxamide], the IC50 in assay [1] was 0.009 µM; in assay [2] it was above 400 µM; in assay [3] it was 0.007 µM; in assay [4], 0.014 µM.
For `CC#C[C@@H](C)Oc1cnc(C(=O)Nc2ccc(F)c([C@@]3(C)N=C(N)[C@@]4(C)CC[C@@H]3S4(=O)=O)c2)cn1` [Example 70, N-(3-((1S,2R,5R)-4-amino-2,5-dimethyl-8,8-dioxido-8-thia-3-azabicyclo[3.2.1]oct-3-en-2-yl)-4-fluorophenyl)-5-(((1R)-1-methyl-2-butyn-1-yl)oxy)-2-pyrazinecarboxamide], the IC50 in assay [1] was 0.014 µM; in assay [2], above 400 µM; in assay [3], 0.007 µM; in assay [4], 0.05 µM.
